ChEMBL document CHEMBL4130367, “Click chemistry-based synthesis and anticancer activity evaluation of novel C-14 1,2,3-triazole dehydroabietic acid hybrids” (Eur J Med Chem, 2017)
The source made the active and inactive calls. The calls are words filed in the database; no cut-off is given here.

Key:
[1] = Metabolic stability in mouse liver microsomes assessed as parent compound remaining after 90 mins in presence of NADPH by HPLC analysis; format: ADME, microsome; settings: read-out: Stability
[2] = Metabolic stability in rat liver microsomes assessed as parent compound remaining after 60 mins in presence of NADPH by HPLC analysis; format: ADME, microsome; settings: read-out: Stability
[3] = Metabolic stability in mouse liver microsomes assessed as parent compound remaining after 150 mins in presence of NADPH by HPLC analysis; format: ADME, microsome; settings: read-out: Stability
[4] = Selectivity index, ratio of IC50 for human HL7702 cells to IC50 for human U251 cells; format: toxicity; settings: HL7702 cells versus U251 cells, read-out: Ratio IC50
[5] = Metabolic stability in rat liver microsomes assessed as parent compound remaining after 30 mins in presence of NADPH by HPLC analysis; format: ADME, microsome; settings: read-out: Stability
MDA-MB-231 [6] = test: Induction of apoptosis in human MDA-MB-231 cells assessed as cleaved caspase-3 protein expression up to 1 uM after 48 hrs by Western blot analysis; format: functional, cell-based
[7] = Metabolic stability in rat liver microsomes assessed as parent compound remaining after 150 mins in presence of NADPH by HPLC analysis; format: ADME, microsome; settings: read-out: Stability
[8] = Selectivity index, ratio of IC50 for human HL7702 cells to IC50 for human SKBR3 cells; format: toxicity; settings: HL7702 cells versus SKBR3 cells, read-out: Ratio IC50
[9] = Selectivity index, ratio of IC50 for human HL7702 cells to IC50 for human SMCC7721 cells; format: toxicity; settings: HL7702 cells versus SMCC7721 cells, read-out: Ratio IC50
MDA-MB-231 [10] = test: Cytotoxicity against human MDA-MB-231 cells assessed as reduction in cell viability after 72 hrs by MTT assay; format: functional, cell-based; settings: MDA-MB-231, 72 h
[11] = Selectivity index, ratio of IC50 for HFF cells to IC50 for human U251 cells; format: toxicity; settings: HFF cells versus U251 cells, read-out: Ratio IC50
A549 = test: Cytotoxicity against human A549 cells assessed as reduction in cell viability after 72 hrs by MTT assay; format: functional, cell-based; settings: A549, 72 h
MDA-MB-231 [12] = test: Downregulation of NFkB p65 protein expression in human MDA-MB-231 cells up to 1 uM after 48 hrs by Western blot analysis; format: functional, cell-based
[13] = Selectivity index, ratio of IC50 for HFF cells to IC50 for human A549 cells; format: toxicity; settings: HFF cells versus A549 cells, read-out: Ratio IC50
[14] = Selectivity index, ratio of IC50 for human HL7702 cells to IC50 for human LNCAP cells; format: toxicity; settings: HL7702 cells versus LNCAP cells, read-out: Ratio IC50
[15] = Metabolic stability in rat liver microsomes assessed as parent compound remaining after 120 mins in presence of NADPH by HPLC analysis; format: ADME, microsome; settings: read-out: Stability
[16] = Selectivity index, ratio of IC50 for human HL7702 cells to IC50 for human HCT116 cells; format: toxicity; settings: HL7702 cells versus HCT116 cells, read-out: Ratio IC50
L02 = test: Cytotoxicity against human HL7702 cells assessed as reduction in cell viability after 72 hrs by MTT assay; format: cell-based; settings: L02, 72 h
U-251 = test: Cytotoxicity against human U251 cells assessed as reduction in cell viability after 72 hrs by MTT assay; format: functional, cell-based; settings: U-251, 72 h
[17] = Half life in mouse liver microsomes in presence of NADPH by HPLC analysis; format: ADME, microsome
[18] = Metabolic stability in mouse liver microsomes assessed as parent compound remaining after 60 mins in presence of NADPH by HPLC analysis; format: ADME, microsome; settings: read-out: Stability
MDA-MB-231 [19] = test: Induction of apoptosis in human MDA-MB-231 cells assessed as early apoptotic cells at 1 uM after 24 hrs by Annexin V-FITC/propidium iodide staining based flow cytometry (reference value: 2.33%); format: functional
[20] = Metabolic stability in dog liver microsomes assessed as parent compound remaining after 30 mins in presence of NADPH by HPLC analysis; format: ADME, Canis lupus familiaris, microsome; settings: read-out: Stability
MDA-MB-231 [21] = test: Induction of apoptosis in human MDA-MB-231 cells assessed as late apoptotic cells at 1 uM after 24 hrs by Annexin V-FITC/propidium iodide staining based flow cytometry (reference value: 2.97%); format: functional
[22] = Selectivity index, ratio of IC50 for human HL7702 cells to IC50 for human A549 cells; format: toxicity; settings: HL7702 cells versus A549 cells, read-out: Ratio IC50
[23] = Metabolic stability in rat liver microsomes assessed as parent compound remaining after 90 mins in presence of NADPH by HPLC analysis; format: ADME, microsome; settings: read-out: Stability
[24] = Half life in dog liver microsomes in presence of NADPH by HPLC analysis; format: ADME, Canis lupus familiaris, microsome
NCI/ADR-RES = test: Growth inhibition of human MCF7/ADR cells at 2.5 to 5 uM after 72 hrs by MTT assay relative to control; format: functional
MDA-MB-231 [25] = test: Induction of apoptosis in human MDA-MB-231 cells assessed as upregulation of Bax protein expression after 48 hrs by Western blot analysis; format: functional, cell-based
[26] = Metabolic stability in mouse liver microsomes assessed as parent compound remaining after 120 mins in presence of NADPH by HPLC analysis; format: ADME, microsome; settings: read-out: Stability
[27] = Metabolic stability in dog liver microsomes assessed as parent compound remaining after 60 mins in presence of NADPH by HPLC analysis; format: ADME, Canis lupus familiaris, microsome; settings: read-out: Stability
SK-OV-3 = test: Cytotoxicity against human SKOV3 cells assessed as reduction in cell viability after 72 hrs by MTT assay; format: functional, cell-based; settings: SK-OV-3, 72 h
MDA-MB-231 [28] = test: Induction of apoptosis in human MDA-MB-231 cells assessed as late apoptotic cells at 0.1 uM after 24 hrs by Annexin V-FITC/propidium iodide staining based flow cytometry (reference value: 2.97%); format: functional
MDA-MB-231 [29] = test: Induction of apoptosis in human MDA-MB-231 cells assessed as dead cells at 0.1 uM after 24 hrs by Annexin V-FITC/propidium iodide staining based flow cytometry (reference value: 2.15%); format: functional
MCF7 = test: cells; settings: Homo sapiens, MCF7, 72 h
Description: Cytotoxicity against human MCF7 cells assessed as reduction in cell viability after 72 hrs by MTT assay

[30] = Metabolic stability in dog liver microsomes assessed as parent compound remaining after 120 mins in presence of NADPH by HPLC analysis; format: ADME, Canis lupus familiaris, microsome; settings: 2 h
HCT-116 = test: Cytotoxicity against human HCT116 cells assessed as reduction in cell viability after 72 hrs by MTT assay; format: functional, cell-based; settings: HCT-116, 72 h
[31] = Selectivity index, ratio of IC50 for HFF cells to IC50 for human SKBR3 cells; format: toxicity; settings: HFF cells versus SKBR3 cells, read-out: Ratio IC50
MDA-MB-231 [32] = test: Induction of apoptosis in human MDA-MB-231 cells assessed as cleaved PARP protein expression up to 1 uM after 48 hrs by Western blot analysis; format: functional, cell-based
MDA-MB-231 [33] = test: Induction of apoptosis in human MDA-MB-231 cells assessed as early apoptotic cells at 0.1 uM after 24 hrs by Annexin V-FITC/propidium iodide staining based flow cytometry (reference value: 2.33%); format: functional
[34] = Selectivity index, ratio of IC50 for HFF cells to IC50 for human SMCC7721 cells; format: toxicity; settings: HFF cells versus SMCC7721 cells, read-out: Ratio IC50

**Q.** With `COC(=O)[C@]1(C)CCC[C@]2(C)c3ccc(C(C)C)c(NC(=O)Cn4cc(-c5cccc(NC(=O)OC(C)(C)C)c5)nn4)c3CC[C@@H]12` as the molecule, how does the remaining at 1.5 h [1] read?
**A.** The remaining at 1.5 h was 61.3%.

**Q.** What about the remaining at 1 h [2] of the same molecule?
**A.** Its remaining at 1 h is 79.3%.

**Q.** And the remaining at 2.5 h [3]?
**A.** The remaining at 2.5 h was 25.7%.

**Q.** And the selectivity ratio [4]?
**A.** Its selectivity ratio is 4.5.

**Q.** And the remaining at 0.5 h [5]?
**A.** Its remaining at 0.5 h is 85.4%.

**Q.** And the Activity (MDA-MB-231 [6])?
**A.** The Activity was “Active”.

**Q.** What about the remaining at 2.5 h [7] of the same molecule?
**A.** The remaining at 2.5 h was 42.1%.

**Q.** What about the selectivity ratio [8] of the same molecule?
**A.** The selectivity ratio was 8.4.

**Q.** And the selectivity ratio [9]?
**A.** The selectivity ratio was 7.6.

**Q.** What about the IC50 (MDA-MB-231 [10]) of the same molecule?
**A.** The IC50 was 700 nM.

**Q.** And the selectivity ratio [11]?
**A.** The selectivity ratio was 3.1.

**Q.** And the IC50 (A549)?
**A.** The IC50 was 1300 nM.

**Q.** What about the Activity (MDA-MB-231 [12]) of the same molecule?
**A.** Its Activity is “Active”.

**Q.** What about the selectivity ratio [13] of the same molecule?
**A.** The selectivity ratio was 4.2.

**Q.** And the selectivity ratio [14]?
**A.** The selectivity ratio was 12.4.

**Q.** What about the remaining at 2 h [15] of the same molecule?
**A.** The remaining at 2 h was 58.4%.

**Q.** What about the selectivity ratio [16] of the same molecule?
**A.** The selectivity ratio was 7.9.

**Q.** What about the IC50 (L02) of the same molecule?
**A.** The IC50 was 7800 nM.

**Q.** And the IC50 (U-251)?
**A.** The IC50 was 1800 nM.

**Q.** And the half-life [17]?
**A.** The half-life was 1.76 h.

**Q.** And the remaining at 1 h [18]?
**A.** Its remaining at 1 h is 72.6%.

**Q.** What about the Activity (MDA-MB-231 [19]) of the same molecule?
**A.** The Activity was 6.13%.

**Q.** What about the remaining at 0.5 h [20] of the same molecule?
**A.** Its remaining at 0.5 h is 77.3%.

**Q.** And the Activity (MDA-MB-231 [21])?
**A.** The Activity was 16.75%.

**Q.** And the selectivity ratio [22]?
**A.** The selectivity ratio was 6.1.

**Q.** And the remaining at 1.5 h [23]?
**A.** The remaining at 1.5 h was 70.5%.

**Q.** What about the t1/2 [24] of the same molecule?
**A.** Its t1/2 is 1.16 h.

**Q.** What about the “growth inhibition (GI)” value (NCI/ADR-RES) of the same molecule?
**A.** The value was over 50%.

**Q.** What about the Activity (MDA-MB-231 [25]) of the same molecule?
**A.** Its Activity is “Active”.

**Q.** What about the remaining at 2 h [26] of the same molecule?
**A.** Its remaining at 2 h is 43.7%.

**Q.** What about the remaining at 1 h [27] of the same molecule?
**A.** The remaining at 1 h was 59%.

**Q.** And the IC50 (SK-OV-3)?
**A.** The IC50 was 1200 nM.

**Q.** What about the Activity (MDA-MB-231 [28]) of the same molecule?
**A.** The Activity was 9.91%.

**Q.** And the Activity (MDA-MB-231 [29])?
**A.** Its Activity is 7.57%.

**Q.** What about the IC50 (MCF7) of the same molecule?
**A.** Its IC50 is 800 nM.

**Q.** What about the Stability [30] of the same molecule?
**A.** Its Stability is 4.8%.

**Q.** What about the IC50 (HCT-116) of the same molecule?
**A.** The IC50 was 1000 nM.

**Q.** And the selectivity ratio [31]?
**A.** The selectivity ratio was 5.8.

**Q.** And the Activity (MDA-MB-231 [32])?
**A.** Its Activity is “Active”.

**Q.** What about the Activity (MDA-MB-231 [33]) of the same molecule?
**A.** The Activity was 4.32%.

**Q.** And the selectivity ratio [34]?
**A.** Its selectivity ratio is 5.2.
